The results in this text go back to patent publication US12502410B2, “Preservation of pancreatic islet grafts in the extrahepatic space” (The Regents of the University of California, priority 2017, dated 2025).

One test concerns eBC. The experiment in a line: eBC viability in nutrient deprived and/or hypoxic culture, PI staining and flow cytometry. As to conditions: 24 hours; for beta cell survival: nutrient deprived and/or hypoxic; for preservation of insulin-producing cells after stress: nutrient deprived or hypoxic. Type of test: cell-based, human. Here is the method: (§1) SCIPC cultured for 24 hours in nutrient deprived and/or hypoxic conditions with or without GABA, PTH, and PTHrP At the end of the experiment, islet viability was measured using PI staining followed by flow cytometry. FIG. 11B depicts the effect of GABA, PTH and PTHrP on preserving insulin-producing cells after stress. FIG. 11C depicts quantification of viability of eBC cultured for 24 hours in nutrient deprived or hypoxic conditions with or without GABA, PTH, and PTHrP. […] Quantification of viability of cBC cultured for 24 hours in nutrient deprived and/or hypoxic conditions with or without leptin or serotonin. Islet viability measured using PI staining followed by flow cytometry.
(§2) In order to understand whether cell survival is due to secreted pro-survival or pro-angiogenic molecules, known PTG-released molecules were added to SCIPC and eBC cultures in vitro. While PTH is the main PTG-secreted hormone, previous publications also show GABA production within the PTG. GABA and PTH improve beta cell survival in nutrient deprived and/or hypoxic environment in vitro (FIG. 11A).
In general terms: In flow cytometry, cells or beads pass a laser one at a time.

The next test relates to human islets. The experiment in a line: Amino acid supplementation, viability of high density culture (PI staining). It is filed as cell-based. As to conditions: 1000 islets/mL, RPMI+5% serum. The source says:
(§3) FIG. 15A, FIG. 15B, and FIG. 15C depict the effect of nutrient supplementation on islet cell death in vitro. The effects of cell survival by supplementation of amino acids on mouse islets (FIG. 15A), human islets (FIG. 15B), and SCIPC (FIG. 15C) cultured in low or high density conditions (mouse=1000 islets/mL, human=1000 islets/mL, SCIPC=3000 clusters/mL) in RPMI+5% serum with addition of glucose. GLN: glutamine, TRP: tryptophan. Cell viability is quantified using PI staining via flow cytometry. Data shown are a summary of 3 independent experiments.
(§4) Various insulin-producing cells cultured in low (nutrient replete; mouse=200 islets/mL, human=200 islets/mL, SCIPC=200 clusters/mL) or high density conditions (nutrient limiting; mouse=1000 islets/mL, human=1000 islets/mL, SCIPC=3000 clusters/mL) in RPMI+5% serum with addition of glucose.

The test system of the next test is mouse islets. The description is as above. Type of test: cell-based. As to conditions: 1000 islets/mL, RPMI+5% serum.
Source text: as §3, §4

Test [1] deals with SCIPC. The description is as above. It is filed as cell-based, human. As to conditions: 3000 clusters/mL, RPMI+5% serum.
Source text: as §3, §4

Test [2] has as its system SCIPC. In words: SCIPC viability in nutrient deprived and/or hypoxic culture, PI staining and flow cytometry. Type of test: cell-based, human. The note with it: for preservation of insulin-producing cells after stress: SCIPC; for beta cell / SCIPC survival: nutrient deprived and/or hypoxic environment, 24 hours. As for the experimental part:
as §1, §2

For `NCCc1c[nH]c2ccc(O)cc12` [serotonin], in the test on eBC, the beta cell survival entry is listed as “preserves beta cell survival”.
With `N[C@@H](Cc1c[nH]c2ccccc12)C(=O)O` [tryptophan], the “viability under nutrient-limiting condition” value in the test on human islets, in the test on mouse islets and with SCIPC [1] was “preserved viability” each time.
As for `NC(=O)CC[C@H](N)C(=O)O` [glutamine], the “viability under nutrient-limiting condition” value in the test on human islets, in the test with mouse islets and in the test with SCIPC [1] was “preserved viability” each time.
For the molecule `NCCCC(=O)O` [GABA], in the test with SCIPC [2], the “preservation of insulin-producing cells after stress” value (“preservation” for short) is reported as “preferentially preserve” and the “beta cell / SCIPC survival” value is reported as “improve”. Further, in the test on eBC, the “preservation” value is on record as “preferentially preserve”.
In the case of leptin, in the test on eBC, the beta cell survival entry is reported as “preserves beta cell survival”.
Consider “parathyroid hormone-related protein [PTHrP]”, for which the “preservation” value in the test on SCIPC [2] and in the test with eBC was “preferentially preserve” in each case. In addition, the “beta cell / SCIPC survival” value with SCIPC [2] was “preserve SCIPC survival”.

B1: parathyroid hormone (protein, UniProt P01270 32-115, looked up)
Parathyroid hormone: SVSEIQLMHNLGKHLNSMERVEWLRKKLQDVHNFVALGAPLAPRDAGSQRPRKKEDNVLVESHEKSLGEADKADVNVLTKAKSQ
modifications: Parathyroid hormone
notes: main PTG-secreted hormone added to cultures
As to B1, the “preservation” value in the test with SCIPC [2] and in the test with eBC was “preferentially preserve” throughout. Further, the “beta cell / SCIPC survival” value in the test with SCIPC [2] is reported as “improve”.
